Reference: PMC11549390, “Activity, structure, and diversity of Type II proline-rich antimicrobial peptides from insects” (EMBO Reports, 2024)
Read-outs that look alike come from different tables or passages of the source. No end group written: not given here.

Experiments:
[1] = system: E. coli BL21; assay type: cell-based, Escherichia coli
Experimental: (§1) The minimal inhibitory concentration (MIC) test for the E. coli laboratory strain BL21 and the K. pneumoniae multi-drug-resistant clinical strain AR-0112 (CDC and FDA Antibiotic Resistance Isolate Bank) was performed using the broth microdilution method, adapted from a previously described procedure (Wiegand et al, [2008]). The MIC tests were conducted either in 33% Tryptic Soy Broth (TSB) (Berthold et al, [2013]), or in RPMI/Serum (prepared by combining Roswell Park Memorial Institute medium 1640, Mueller Hinton Broth, and fetal bovine serum in the proportion 100:5:20, v/v/v) (Belanger et al, [2020]).

[2] = system: K. pneumoniae AR-0112; assay type: cell-based, Klebsiella pneumoniae
Experimental: as §1

[3] = system: E. coli strain BL21 cells transformed with the pRXG(UGA) plasmid; experiment: Stop codon readthrough assay (RFP-UGA-GFP reporter, drop-diffusion); assay type: cell-based, Escherichia coli; conditions: subinhibitory concentrations, M9 agar, 2 µL of 2 mM peptide, 37 °C 16 h, three independent experiments
Experimental: Figure 4 Newly identified PrAMPs cause stop codon readthrough in bacterial cells. Top: In-frame fused genes encoding the reporter proteins RFP and GFP in the pRXG plasmid (Monk et al, [2017]) are separated by an UGA stop codon. […] Api and the modified Api137 (Berthold et al, [2013]) were spotted for comparison. […] Shown are representative plates from three independent experiments.
Stop codon readthrough activity of PrAMPs was determined as previously described (Mangano et al, [2023]). Briefly, E. coli strain BL21 cells transformed with the pRXG(UGA) plasmid (Monk et al, [2017]) were plated as described above for the drop-diffusion test, except that the bacterial lawn was formed on M9 medium/agar plates supplemented with 50 µg/ml of Kan and 0.2% glucose. Peptide solutions (2 µL of 2 mM stocks) were applied. The plates were incubated at 37 °C for 16 h and imaged in Cy2 (GFP) or Cy3 (RFP) channels using the BioRad ChemiDoc Touch imaging system. The images were processed using Image Lab software (BioRad).

Molecule | MIC ([1]; BL21) | MIC ([2]; AR-0112) | further results
SNRPVYIPPPRSPHPRL [Bvo1] | >64 µM |  | 
NRPTYVPPPRPPHPRL [Ssp1] |  | 2 µM | 
GNRPNIPTYIPRPRPPHPRL [Fva1] |  |  | MIC ([1]; E. coli BL21, 33% TSB, broth microdilution, performed in triplicate): 0.125 µM; MIC ([1]; E. coli BL21, RPMI/Serum (RPMI 1640:Mueller Hinton Broth:fetal bovine serum 100:5:20), broth microdilution, performed in triplicate): 0.25 µM; MIC ([2]; K. pneumoniae AR-0112 (multi-drug-resistant clinical strain), 33% TSB, broth microdilution, performed in triplicate): 1 µM; MIC ([2]; K. pneumoniae AR-0112, RPMI/Serum (RPMI 1640:Mueller Hinton Broth:fetal bovine serum 100:5:20), broth microdilution, performed in triplicate): 16 µM
SNKPRPQQVPPRPPHPRL [Vma1] |  | 2 µM | 
GSRLMYLPPPPCSPYLHF [Baf1] | >64 µM |  | 
O=C(N[C@H](CO)[C@H](O)c1ccc([N+](=O)[O-])cc1)C(Cl)Cl [chloramphenicol] |  |  | Induction of stop codon readthrough (GFP halo) [3]: does not induce stop codon readthrough
GKPNKPRPAPIKPRPPHPRL [Pdi2] | 0.25 µM |  | 
GSKPVRPPPPIRPRPPHPRL [Btr1] | 0.25 µM |  | 
ALNRPVYVPPPRPPHPRL [Mge1] |  | 1 µM | 
AHKPVYVPPPRPPHPRL [Nme2] |  | 2 µM | 
